Organism: Rattus norvegicus
Assay: DrugMatrix - Regimen: Daily Repeat
Assay type: toxicity, organism-based, Sprague-Dawley
Parameters: regimen Daily Repeat, gender Male, age 6-8 weeks
Settings: in vivo, po, route oral GAVAGE, vehicle 100 % SALINE; for ABSOLUTE BASOPHIL / ABSOLUTE EOSINOPHIL / ABSOLUTE LYMPHOCYTE / ABSOLUTE MONOCYTE / ABSOLUTE SEGMENTED NEUTROPHIL / BASOPHIL / EOSINOPHIL / ERYTHROCYTE COUNT / HEMATOCRIT / HEMOGLOBIN / LEUKOCYTE COUNT / LYMPHOCYTE / MEAN CORPUSCULAR HEMOGLOBIN / MEAN CORPUSCULAR HEMOGLOBIN CONCENTRATION / MEAN CORPUSCULAR VOLUME / MONOCYTE / NEUTROPHIL / NUCLEATED RED BLOOD CELLS / PLATELET COUNT: tissue Blood; for ALANINE AMINOTRANSFERASE / ALBUMIN / ALKALINE PHOSPHATASE / ASPARTATE AMINOTRANSFERASE / BLOOD UREA NITROGEN / CARBON DIOXIDE / CHLORIDE / CHOLESTEROL / CREATINE PHOSPHOKINASE / CREATININE / GLUCOSE / LACTATE DEHYDROGENASE / LIPASE / PHOSPHORUS / POTASSIUM / SODIUM / TOTAL BILIRUBIN / TOTAL PROTEIN / URIC ACID: tissue Plasma
[1] = 0 mg/kg, 72 h, dose level Control, time 3 day
[2] = 0 mg/kg, 120 h, dose level Control, time 5 day
[3] = 11 mg/kg, 72 h, dose level High, time 3 day

For `Cc1cc(CC(=O)O)n(C)c1C(=O)c1ccc(Cl)cc1` [ZOMEPIRAC], the “ABSOLUTE BASOPHIL” value [1] was 0 CELLS/uL, the “ABSOLUTE EOSINOPHIL” value [1] was 65.67 CELLS/uL and the “ABSOLUTE LYMPHOCYTE” value [1] was 17283.5 CELLS/uL. The “ABSOLUTE MONOCYTE” value [1] was 0 CELLS/uL, the “ABSOLUTE SEGMENTED NEUTROPHIL” value [1] was 1284.17 CELLS/uL and the BASOPHIL [1] was 0%. For the same compound, the EOSINOPHIL [1] was 0.33%, the “ERYTHROCYTE COUNT” value [1] was 5.46 x10E6/uL and the HEMATOCRIT [1] was 34.28%. The HEMOGLOBIN [1] was 13.78 G/DL, the “LEUKOCYTE COUNT” value [1] was 18.63 x10E3/uL and the LYMPHOCYTE [1] was 92.67%. The “MEAN CORPUSCULAR HEMOGLOBIN” value [1] was 25.3 pg, the “MEAN CORPUSCULAR HEMOGLOBIN CONCENTRATION” value [1] was 40.22 G/DL and the “MEAN CORPUSCULAR VOLUME” value [1] was 62.87 fL. The MONOCYTE [1] was 0%, the NEUTROPHIL [1] was 7% and the “NUCLEATED RED BLOOD CELLS” value [1] was 0 /100WBC. The “PLATELET COUNT” value [1] was 1244.83 x10E3/uL, the “ALANINE AMINOTRANSFERASE” value [1] was 52.83 u/L and the ALBUMIN [1] was 4 G/DL. For the same compound, the “ALKALINE PHOSPHATASE” value [1] was 327.67 u/L, the “ASPARTATE AMINOTRANSFERASE” value [1] was 78.83 u/L and the “BLOOD UREA NITROGEN” value [1] was 13.83 mg/dL. For the same compound, the “CARBON DIOXIDE” value [1] was 26.67 mmol/L, the CHLORIDE [1] was 99.67 MEQ/L and the CHOLESTEROL [1] was 69 mg/dL. The “CREATINE PHOSPHOKINASE” value [1] was 350.17 u/L, the CREATININE [1] was 0.21 mg/dL and the GLUCOSE [1] was 173.83 mg/dL. The “LACTATE DEHYDROGENASE” value [1] was 168.33 u/L, the LIPASE [1] was 11 u/L and the PHOSPHORUS [1] was 12.7 mg/dL. The POTASSIUM [1] was 6.88 MEQ/L, the SODIUM [1] was 141.68 MEQ/L and the “TOTAL BILIRUBIN” value [1] was 0.22 mg/dL. The “TOTAL PROTEIN” value [1] was 6.02 G/DL, the “URIC ACID” value [1] was 1.9 mg/dL and the “ABSOLUTE BASOPHIL” value [2] was 0 CELLS/uL. The “ABSOLUTE EOSINOPHIL” value [2] was 14.83 CELLS/uL, the “ABSOLUTE LYMPHOCYTE” value [2] was 12880 CELLS/uL and the “ABSOLUTE MONOCYTE” value [2] was 90.67 CELLS/uL. For the same compound, the “ABSOLUTE SEGMENTED NEUTROPHIL” value [2] was 864.5 CELLS/uL, the BASOPHIL [2] was 0% and the EOSINOPHIL [2] was 0.17%. The “ERYTHROCYTE COUNT” value [2] was 5.83 x10E6/uL, the HEMATOCRIT [2] was 35.87% and the HEMOGLOBIN [2] was 14 G/DL. For the same compound, the “LEUKOCYTE COUNT” value [2] was 13.85 x10E3/uL, the LYMPHOCYTE [2] was 92.5% and the “MEAN CORPUSCULAR HEMOGLOBIN” value [2] was 24.03 pg. For the same compound, the “MEAN CORPUSCULAR HEMOGLOBIN CONCENTRATION” value [2] was 39.03 G/DL, the “MEAN CORPUSCULAR VOLUME” value [2] was 61.53 fL and the MONOCYTE [2] was 0.67%. For the same compound, the NEUTROPHIL [2] was 6.67%, the “NUCLEATED RED BLOOD CELLS” value [2] was 0 /100WBC and the “PLATELET COUNT” value [2] was 1041.83 x10E3/uL. The “ALANINE AMINOTRANSFERASE” value [2] was 56 u/L, the ALBUMIN [2] was 4.47 G/DL and the “ALKALINE PHOSPHATASE” value [2] was 319 u/L. The “ASPARTATE AMINOTRANSFERASE” value [2] was 89.17 u/L, the “BLOOD UREA NITROGEN” value [2] was 15.2 mg/dL and the “CARBON DIOXIDE” value [2] was 24 mmol/L. For the same compound, the CHLORIDE [2] was 104.4 MEQ/L, the CHOLESTEROL [2] was 69.5 mg/dL and the “CREATINE PHOSPHOKINASE” value [2] was 295.83 u/L. For the same compound, the CREATININE [2] was 0.21 mg/dL, the GLUCOSE [2] was 124.33 mg/dL and the “LACTATE DEHYDROGENASE” value [2] was 325.5 u/L. For the same compound, the LIPASE [2] was 14.67 u/L, the PHOSPHORUS [2] was 11.45 mg/dL and the POTASSIUM [2] was 6.74 MEQ/L. The SODIUM [2] was 151.4 MEQ/L, the “TOTAL BILIRUBIN” value [2] was 0.23 mg/dL and the “TOTAL PROTEIN” value [2] was 6.45 G/DL. The “URIC ACID” value [2] was 1.18 mg/dL, the “ABSOLUTE BASOPHIL” value [3] was 0 CELLS/uL and the “ABSOLUTE EOSINOPHIL” value [3] was 0 CELLS/uL. For the same compound, the “ABSOLUTE LYMPHOCYTE” value [3] was 16900 CELLS/uL, the “ABSOLUTE MONOCYTE” value [3] was 480 CELLS/uL and the “ABSOLUTE SEGMENTED NEUTROPHIL” value [3] was 3253.33 CELLS/uL. The BASOPHIL [3] was 0%, the EOSINOPHIL [3] was 0% and the “ERYTHROCYTE COUNT” value [3] was 5.38 x10E6/uL. For the same compound, the HEMATOCRIT [3] was 33.2%, the HEMOGLOBIN [3] was 13.37 G/DL and the “LEUKOCYTE COUNT” value [3] was 20.63 x10E3/uL. The LYMPHOCYTE [3] was 83.67%, the “MEAN CORPUSCULAR HEMOGLOBIN” value [3] was 24.83 pg and the “MEAN CORPUSCULAR HEMOGLOBIN CONCENTRATION” value [3] was 40.27 G/DL. The “MEAN CORPUSCULAR VOLUME” value [3] was 61.67 fL, the MONOCYTE [3] was 2% and the NEUTROPHIL [3] was 14.33%. The “NUCLEATED RED BLOOD CELLS” value [3] was 0 /100WBC, the “PLATELET COUNT” value [3] was 1231.67 x10E3/uL and the “ALANINE AMINOTRANSFERASE” value [3] was 59 u/L. The ALBUMIN [3] was 3.87 G/DL, the “ALKALINE PHOSPHATASE” value [3] was 255.33 u/L and the “ASPARTATE AMINOTRANSFERASE” value [3] was 72.67 u/L. The “BLOOD UREA NITROGEN” value [3] was 13.33 mg/dL, the “CARBON DIOXIDE” value [3] was 25.33 mmol/L and the CHLORIDE [3] was 101 MEQ/L. For the same compound, the CHOLESTEROL [3] was 69 mg/dL, the “CREATINE PHOSPHOKINASE” value [3] was 224.67 u/L and the CREATININE [3] was 0.23 mg/dL. The GLUCOSE [3] was 183.67 mg/dL, the “LACTATE DEHYDROGENASE” value [3] was 112.67 u/L and the LIPASE [3] was 10.33 u/L. For the same compound, the PHOSPHORUS [3] was 11.5 mg/dL, the POTASSIUM [3] was 5.88 MEQ/L and the SODIUM [3] was 141.43 MEQ/L. The “TOTAL BILIRUBIN” value [3] was 0.2 mg/dL, the “TOTAL PROTEIN” value [3] was 5.77 G/DL and the “URIC ACID” value [3] was 1.47 mg/dL.
